According to ChEMBL document CHEMBL4699632, “Discovery of polypodiside as a Keap1-dependent Nrf2 activator attenuating oxidative stress and accumulation of extracellular matrix in glomerular mesangial cells under high glucose” (Bioorg Med Chem, 2020):
Calls of active or inactive are those of the source. The rule behind the calls is not given here.

Tests used:
[1] = Suppression of high glucose-induced extracellular matrix accumulation in human glomerular mesangial cells assessed as laminin level at 1 uM by ELISA (reference value: 183.8 +/- 9.3 %); type: functional; settings: Glomerular mesangial cell
[2] = Suppression of high glucose-induced extracellular matrix accumulation in human glomerular mesangial cells assessed as laminin level at 0.1 uM by ELISA (reference value: 183.8 +/- 9.3 %); type: functional; settings: Glomerular mesangial cell
[3] = Antioxidant activity against high glucose-induced oxidative stress in human glomerular mesangial cells assessed as effect on intracellular ROS level at 1 uM after 20 mins by DCFH-DA staining based fluorescence assay (reference value: 361 +/- 16.7 %); type: functional, Glomerular mesangial cell
[4] = Suppression of high glucose-induced extracellular matrix accumulation in human glomerular mesangial cells assessed as effect on TGFbeta1 secretion at 10 uM by ELISA (reference value: 312.7 +/- 18.2 %); type: functional; settings: Glomerular mesangial cell
[5] = Antioxidant activity against high glucose-induced oxidative stress in human glomerular mesangial cells assessed as effect on intracellular ROS level at 10 uM after 20 mins by DCFH-DA staining based fluorescence assay (reference value: 361 +/- 16.7 %); type: functional, Glomerular mesangial cell
[6] = Antioxidant activity against high glucose-induced oxidative stress in human glomerular mesangial cells assessed as effect on intracellular MDA level at 10 uM after 10 mins by thiobarbituric acid based absorbance analysis (reference value: 216 +/- 17.3 %); type: functional, Glomerular mesangial cell
[7] = system: Glomerular mesangial cell; assay: Suppression of high glucose-induced extracellular matrix accumulation in human glomerular mesangial cells assessed as decrease in CTGF secretion by ELISA; type: functional, tissue-based; settings: dose microM 0.1-10
[8] = Suppression of high glucose-induced extracellular matrix accumulation in human glomerular mesangial cells assessed as laminin level at 10 uM by ELISA (reference value: 183.8 +/- 9.3 %); type: functional; settings: Glomerular mesangial cell
[9] = system: Glomerular mesangial cell; assay: Effect on high glucose-induced extracellular matrix accumulation in human glomerular mesangial cells transfected with Nrf2-siRNA assessed as decrease in collagen 4 level at 10 uM; type: functional, tissue-based
[10] = Suppression of high glucose-induced extracellular matrix accumulation in human glomerular mesangial cells assessed as collagen 4 level at 1 uM by ELISA (reference value: 221.7 +/- 14.1 %); type: functional; settings: Glomerular mesangial cell
[11] = Antioxidant activity against high glucose-induced oxidative stress in human glomerular mesangial cells assessed as effect on CAT activity at 1 uM by colorimetric assay relative to control; type: functional, Glomerular mesangial cell
[12] = Antioxidant activity against high glucose-induced oxidative stress in human glomerular mesangial cells assessed as effect on intracellular MDA level at 1 uM after 10 mins by thiobarbituric acid based absorbance analysis (reference value: 216 +/- 17.3 %); type: functional, Glomerular mesangial cell
[13] = system: Glomerular mesangial cell; assay: Suppression of high glucose-induced extracellular matrix accumulation in human glomerular mesangial cells assessed as reduction in fibronectin level by ELISA; type: functional, tissue-based; settings: dose microM 0.1-10
[14] = Antioxidant activity against high glucose-induced oxidative stress in human glomerular mesangial cells assessed as effect on CAT activity at 10 uM by colorimetric assay relative to control; type: functional, Glomerular mesangial cell
[15] = Suppression of high glucose-induced extracellular matrix accumulation in human glomerular mesangial cells assessed as collagen 4 level at 10 uM by ELISA (reference value: 221.7 +/- 14.1 %); type: functional; settings: Glomerular mesangial cell
[16] = system: Glomerular mesangial cell; assay: Suppression of high glucose-induced extracellular matrix accumulation in human glomerular mesangial cells assessed as reduction in collagen 4 level by ELISA; type: functional, tissue-based; settings: dose microM 0.1-10
[17] = target: T1, Nuclear factor erythroid 2-related factor 2 (Homo sapiens) (UniProt Q16236); assay: Activation of Nrf2 in human glomerular mesangial cells transfected with ARE luciferase reporter plasmid assessed as increase in ARE luciferase activity at 0.1 to 10 uM under high glucose condition by dual luciferase reporter gene assay; settings: Glomerular mesangial cell, filed as activator, dose microM 0.1-10
T1 sequence (whole entry): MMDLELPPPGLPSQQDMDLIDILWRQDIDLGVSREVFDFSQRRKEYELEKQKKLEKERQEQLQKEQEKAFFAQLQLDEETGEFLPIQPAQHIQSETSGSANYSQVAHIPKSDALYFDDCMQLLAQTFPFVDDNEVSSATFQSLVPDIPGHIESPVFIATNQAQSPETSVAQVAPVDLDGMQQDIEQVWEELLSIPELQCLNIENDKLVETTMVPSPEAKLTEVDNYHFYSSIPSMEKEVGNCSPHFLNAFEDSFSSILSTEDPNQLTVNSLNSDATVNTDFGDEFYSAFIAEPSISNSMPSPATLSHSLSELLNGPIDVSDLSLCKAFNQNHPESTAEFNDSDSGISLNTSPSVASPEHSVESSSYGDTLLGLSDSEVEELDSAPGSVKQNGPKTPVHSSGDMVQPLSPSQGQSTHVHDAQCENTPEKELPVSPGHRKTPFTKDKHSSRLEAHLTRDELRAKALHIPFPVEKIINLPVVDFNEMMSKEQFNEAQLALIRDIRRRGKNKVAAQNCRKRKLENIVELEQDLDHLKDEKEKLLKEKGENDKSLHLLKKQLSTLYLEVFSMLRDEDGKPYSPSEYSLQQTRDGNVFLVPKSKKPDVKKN

[18] = Antioxidant activity against high glucose-induced oxidative stress in human glomerular mesangial cells assessed as effect on CAT activity at 0.1 uM by colorimetric assay relative to control; type: functional, Glomerular mesangial cell
[19] = Suppression of high glucose-induced extracellular matrix accumulation in human glomerular mesangial cells assessed as fibronectin level at 0.1 uM by ELISA (reference value: 319.6 +/- 12.4 %); type: functional; settings: Glomerular mesangial cell
[20] = target: T1, Nuclear factor erythroid 2-related factor 2 (Homo sapiens); assay: Activation of Nrf2 in human glomerular mesangial cells assessed as increase in nuclear Nrf2 expression at 0.1 to 10 uM under high glucose condition by Western blot analysis; settings: Glomerular mesangial cell, filed as activator, dose microM 0.1-10
[21] = Suppression of high glucose-induced extracellular matrix accumulation in human glomerular mesangial cells assessed as effect on TGFbeta1 secretion at 1 uM by ELISA (reference value: 312.7 +/- 18.2 %); type: functional; settings: Glomerular mesangial cell
[22] = Antioxidant activity against high glucose-induced oxidative stress in human glomerular mesangial cells assessed as effect on SOD activity at 0.1 uM by colorimetric assay relative to control; type: functional, Glomerular mesangial cell
[23] = Antioxidant activity against high glucose-induced oxidative stress in human glomerular mesangial cells assessed as effect on SOD activity at 10 uM by colorimetric assay relative to control; type: functional, Glomerular mesangial cell
[24] = Suppression of high glucose-induced extracellular matrix accumulation in human glomerular mesangial cells assessed as collagen 4 level at 0.1 uM by ELISA (reference value: 221.7 +/- 14.1 %); type: functional; settings: Glomerular mesangial cell
[25] = system: Glomerular mesangial cell; assay: Effect on high glucose-induced extracellular matrix accumulation in human glomerular mesangial cells transfected with Nrf2-siRNA assessed as decrease in laminin level at 10 uM; type: functional, tissue-based
[26] = system: Glomerular mesangial cell; assay: Suppression of high glucose-induced extracellular matrix accumulation in human glomerular mesangial cells assessed as reduction in laminin level by ELISA; type: functional, tissue-based; settings: dose microM 0.1-10
[27] = Suppression of high glucose-induced extracellular matrix accumulation in human glomerular mesangial cells assessed as fibronectin level at 1 uM by ELISA (reference value: 319.6 +/- 12.4 %); type: functional; settings: Glomerular mesangial cell
[28] = system: Glomerular mesangial cell; assay: Increase in total Nrf2 expression in human glomerular mesangial cells at 10 uM under high glucose condition by Western blot analysis; type: functional, tissue-based; settings: dose microM 0.1-10
[29] = system: Glomerular mesangial cell; assay: Effect on high glucose-induced extracellular matrix accumulation in human glomerular mesangial cells transfected with Nrf2-siRNA assessed as decrease in fibronectin level at 10 uM; type: functional, tissue-based
[30] = system: Glomerular mesangial cell; assay: Cytoprotective activity against high glucose-induced self-limited proliferation in human glomerular mesangial cells at 0.1 to 10 uM measured after 3 hrs under high glucose condition by BrdU incorporation assay; type: functional, tissue-based; settings: dose microM 0.1-10, time 3.0 hrs
[31] = target: Kelch-like ECH-associated protein 1 (Homo sapiens) (UniProt Q14145); assay: Binding affinity to Keap1 in human glomerular mesangial cells assessed as disruption of Keap1-Nrf2 complex formation causing decrease in Keap1 level at 10 uM measured after overnight by co-immunoprecipitation analysis; type: tissue-based; settings: Glomerular mesangial cell, filed as activator, time 12.0 hrs
Sequence of Kelch-like ECH-associated protein 1 (Homo sapiens) (Q14145 whole entry): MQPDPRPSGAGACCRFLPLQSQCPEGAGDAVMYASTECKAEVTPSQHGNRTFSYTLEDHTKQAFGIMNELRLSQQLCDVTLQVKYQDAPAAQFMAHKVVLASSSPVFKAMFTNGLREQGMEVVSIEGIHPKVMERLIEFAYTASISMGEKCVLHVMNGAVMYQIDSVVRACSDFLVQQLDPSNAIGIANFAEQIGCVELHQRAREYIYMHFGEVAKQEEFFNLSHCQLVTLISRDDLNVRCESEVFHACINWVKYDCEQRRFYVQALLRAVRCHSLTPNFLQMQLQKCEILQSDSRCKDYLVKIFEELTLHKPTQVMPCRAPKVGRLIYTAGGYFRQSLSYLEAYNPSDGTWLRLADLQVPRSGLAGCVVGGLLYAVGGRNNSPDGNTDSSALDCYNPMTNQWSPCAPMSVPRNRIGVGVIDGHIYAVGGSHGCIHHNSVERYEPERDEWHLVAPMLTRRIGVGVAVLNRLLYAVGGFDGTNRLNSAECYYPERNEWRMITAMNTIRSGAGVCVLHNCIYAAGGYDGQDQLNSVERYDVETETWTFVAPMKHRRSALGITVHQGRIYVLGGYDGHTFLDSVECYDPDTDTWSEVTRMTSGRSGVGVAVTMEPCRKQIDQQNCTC

[32] = Suppression of high glucose-induced extracellular matrix accumulation in human glomerular mesangial cells assessed as fibronectin level at 10 uM by ELISA (reference value: 319.6 +/- 12.4 %); type: functional; settings: Glomerular mesangial cell
[33] = Antioxidant activity against high glucose-induced oxidative stress in human glomerular mesangial cells assessed as effect on intracellular ROS level at 0.1 uM after 20 mins by DCFH-DA staining based fluorescence assay (reference value: 361 +/- 16.7 %); type: functional, Glomerular mesangial cell
[34] = system: Glomerular mesangial cell; assay: Effect on high glucose-induced oxidative stress in human glomerular mesangial cells transfected with Nrf2-siRNA assessed as decrease in intracellular MDA level at 10 uM; type: functional
[35] = target: T1, Nuclear factor erythroid 2-related factor 2 (Homo sapiens); assay: Activation of Nrf2 in human glomerular mesangial cells assessed as increase in Nrf2 level at 0.1 to 10 uM under high glucose condition; type: tissue-based; settings: Glomerular mesangial cell, filed as activator, dose microM 0.1-10
[36] = target: T1, Nuclear factor erythroid 2-related factor 2 (Homo sapiens); assay: Activation of Nrf2 in human glomerular mesangial cells assessed as translocation of Nrf2 from cytoplasm to nucleus at 0.1 to 10 uM under high glucose condition by DAPI staining based fluorescence microscopy analysis; type: tissue-based; settings: Glomerular mesangial cell, filed as activator, dose microM 0.1-10
[37] = system: Glomerular mesangial cell; assay: Suppression of high glucose-induced extracellular matrix accumulation in human glomerular mesangial cells assessed as decrease in TGFbeta1 secretion by ELISA; type: functional, tissue-based; settings: dose microM 0.1-10
[38] = Suppression of high glucose-induced extracellular matrix accumulation in human glomerular mesangial cells assessed as effect on CTGF secretion at 10 uM by ELISA (reference value: 267.7 +/- 21.3 %); type: functional; settings: Glomerular mesangial cell
[39] = system: Glomerular mesangial cell; assay: Cytoprotective activity against high glucose-induced decreased cell viability in human glomerular mesangial cells at 0.1 uM after 1 hr by CCK8 assay; type: functional, tissue-based
[40] = Cytotoxicity against human glomerular mesangial cells assessed as effect on cell viability at 400 uM after 1 hr by CCK8 assay; type: cell-based
[41] = system: Glomerular mesangial cell; assay: Effect on high glucose-induced oxidative stress in human glomerular mesangial cells transfected with Nrf2-siRNA assessed as decrease in intracellular ROS level at 10 uM; type: functional, tissue-based
[42] = Suppression of high glucose-induced extracellular matrix accumulation in human glomerular mesangial cells assessed as effect on TGFbeta1 secretion at 0.1 uM by ELISA (reference value: 312.7 +/- 18.2 %); type: functional; settings: Glomerular mesangial cell
[43] = Antioxidant activity against high glucose-induced oxidative stress in human glomerular mesangial cells assessed as effect on intracellular MDA level at 0.1 uM after 10 mins by thiobarbituric acid based absorbance analysis (reference value: 216 +/- 17.3 %); type: functional, Glomerular mesangial cell
[44] = Antioxidant activity against high glucose-induced oxidative stress in human glomerular mesangial cells assessed as effect on SOD activity at 1 uM by colorimetric assay relative to control; type: functional, Glomerular mesangial cell

O=C(O)/C=C/c1cc(OC(=O)/C=C/c2ccc(O[C@@H]3O[C@H](CO)[C@@H](O)[C@H](O)[C@H]3O)cc2)cc(O[C@@H]2O[C@H](CO)[C@@H](O)[C@H](O)[C@H]2O)c1
level, % of control at 1 µM [1]: 148%
level, % of control at 0.1 µM [2]: 163%
Activity [3]: 287.2%
level, % of control at 10 µM [4]: 140%
Activity [5]: 190.8%
Activity [6]: 135.9%
inhibition [7]: Dose-dependent effect
level, % of control at 10 µM [8]: 124%
Activity [9]: inactive
level, % of control at 1 µM [10]: 163%
Activity [11]: 188.5%
Activity [12]: 163.7%
inhibition [13]: Dose-dependent effect
Activity [14]: 233.4%
level, % of control at 10 µM [15]: 129%
inhibition [16]: Dose-dependent effect
Activity [17]: Active
Activity [18]: 144.6%
level, % of control at 0.1 µM [19]: 282%
Activity [20]: Active
level, % of control at 1 µM [21]: 213%
Activity [22]: 155.7%
Activity [23]: 306.3%
level, % of control at 0.1 µM [24]: 193%
Activity [25]: inactive
inhibition [26]: Dose-dependent effect
level, % of control at 1 µM [27]: 246%
Activity [28]: Active
Activity [29]: inactive
Activity [30]: Active
Activity [31]: Active
level, % of control at 10 µM [32]: 179%
Activity [33]: 323%
Activity [34]: inactive
Activity [35]: Active
Activity [36]: Active
inhibition [37]: Dose-dependent effect
level, % of control at 10 µM [38]: 119%
Activity [39]: Active
Activity [40]: Non-Toxic
Activity [41]: inactive
level, % of control at 0.1 µM [42]: 262%
Activity [43]: 183.9%
Activity [44]: 229.2%
